Experiment: modified H-ORAC (mH-ORAC) assay
Type: biochemical
Conditions: acetone solution, acetone final concentration 1.25%
Description: To study the free radical scavenging activity of a triprenyl phenol compound, the following H-ORAC (hydrophilic oxygen radical absorbance capacity) assay, and modified H-ORAC (mH-ORAC) assay were conducted.
SMTP compounds evaluated by H-ORAC were used respectively in a form of a sodium salt aqueous solution, and the compounds evaluated by mH-ORAC were used respectively in a form of an acetone solution.
In H-ORAC a test compound was diluted appropriately with a buffer solution (75 mM phosphate buffer solution, pH 7.4) and used for measurement. In mH-ORAC a test compound was diluted appropriately by a 50% (v/v) acetone solution, prepared by diluting an acetone solution with water, to prepare a solution of 40-fold the final concentration. […] As for the reference material Trolox, 500 μM/buffer solution was diluted appropriately with a buffer solution.
To a 96-well microplate (transparent, flat bottom, black wall) 50 μL of a test compound solution or a Trolox solution was placed, and additionally 100 μL of a fluorescein 140 nM/buffer solution as a fluorescent substance was added (final concentration 70 nM), followed by incubation at 37° C. for […].
As a free radical generator, 50 μL of a 48 mM/buffer solution of 2,2′-azobis(amidinopropane)dihydrochloride was added (final concentration 12 mM), and fluorescence intensity at fluorescence wavelength of 535 nm with excitation wavelength of 485 nm was measured at 2 min intervals for 90 min. The calibration curve was prepared between the Trolox final concentrations of 5 to 15 μM. The measurement was conducted by changing the concentration with n=3, and plotted on a diagram with time on the abscissa and the fluorescence intensity on the ordinate. Therewith evaluation was made using the value obtained by reducing the area under the curve for the blank from the area under the curve for the sample. The result was expressed as an equivalent to Trolox.

For `CC(C)=CCC/C(C)=C/CC[C@@]1(C)Oc2c(c(O)cc3c2CN(CCC[C@@H](C(=O)O)N2Cc4c(cc(O)c5c4O[C@](C)(CC/C=C(\C)CCC=C(C)C)[C@@H](O)C5)C2=O)C3=O)C[C@@H]1O` [SMTP-7], the “free radical scavenging activity, Trolox equivalent” value was 1.82 ± 0.27 molTE/mol.

From patent USRE49351E1, “Cytoprotective agent” (Biogen MA Inc., priority 2009, dated 2023)
